Source: the NIST ThermoML archive (doi:10.1007/s10765-009-0581-7)
± gives the expanded uncertainty stated by the source.

Assays:
[1] = for surface tension liquid-gas: Ring tensiometer; for mass density: 101 kPa, Liquid
[2] = xn = mol fraction of the nth substance listed; conditions: x2 = 0; for surface tension liquid-gas: Ring tensiometer; for mass density: 101 kPa, Liquid

Compound | surface tension liquid-gas ([1]; 278.15 K) [mN/m] | mass density ([1]; 278.15 K) [kg/m3] | surface tension liquid-gas ([1]; 283.15 K) [mN/m] | mass density ([1]; 283.15 K) [kg/m3] | surface tension liquid-gas ([1]; 288.15 K) [mN/m] | mass density ([1]; 288.15 K) [kg/m3] | surface tension liquid-gas ([1]; 293.15 K) [mN/m] | mass density ([1]; 293.15 K) [kg/m3] | surface tension liquid-gas ([1]; 298.15 K) [mN/m] | mass density ([1]; 298.15 K) [kg/m3] | surface tension liquid-gas ([1]; 303.15 K) [mN/m] | mass density ([1]; 303.15 K) [kg/m3] | surface tension liquid-gas ([1]; 308.15 K) [mN/m] | mass density ([1]; 308.15 K) [kg/m3] | surface tension liquid-gas ([1]; 313.15 K) [mN/m] | mass density ([1]; 313.15 K) [kg/m3] | other results
CCCO [propan-1-ol] | 24.9 ± 0.4 | 816.3 ± 1.8 | 24.5 ± 0.4 | 812.4 ± 1.8 | 24.1 ± 0.4 | 808.6 ± 1.8 | 23.7 ± 0.4 | 803.61 ± 1.9 | 23.3 ± 0.4 | 799.58 ± 1.9 | 22.9 ± 0.4 | 795.48 ± 1.9 | 22.5 ± 0.4 | 792.8 ± 1.9 | 22.2 ± 0.4 | 787.02 ± 1.9 | –
CC#N [acetonitrile] | 30.5 ± 0.5 | 793.3 ± 1.9 | 30.1 ± 0.5 | 788.8 ± 1.9 | 29.7 ± 0.5 | 784.3 ± 2 | 29.3 ± 0.5 | 778.3 ± 2 | 28.9 ± 0.5 | 776.75 ± 2 | 28.5 ± 0.4 | 771.5 ± 2 | 28.1 ± 0.4 | 766.3 ± 2.1 | 27.7 ± 0.4 | 761 ± 2.1 | –
CCCO [propan-1-ol] + CC#N | – | – | – | – | – | – | – | – | – | – | – | – | – | – | – | – | surface tension liquid-gas ([2]; 278.15 K): 24.9 ± 0.4 mN/m; mass density ([2]; 278.15 K): 816.3 ± 1.8 kg/m3; surface tension liquid-gas ([2]; 283.15 K): 24.5 ± 0.4 mN/m; mass density ([2]; 283.15 K): 812.4 ± 1.8 kg/m3; surface tension liquid-gas ([2]; 288.15 K): 24.1 ± 0.4 mN/m; mass density ([2]; 288.15 K): 808.6 ± 1.8 kg/m3; surface tension liquid-gas ([2]; 293.15 K): 23.7 ± 0.4 mN/m; mass density ([2]; 293.15 K): 803.61 ± 1.9 kg/m3; surface tension liquid-gas ([2]; 298.15 K): 23.3 ± 0.4 mN/m; mass density ([2]; 298.15 K): 799.58 ± 1.9 kg/m3; surface tension liquid-gas ([2]; 303.15 K): 22.9 ± 0.4 mN/m; mass density ([2]; 303.15 K): 795.48 ± 1.9 kg/m3; surface tension liquid-gas ([2]; 308.15 K): 22.5 ± 0.4 mN/m; mass density ([2]; 308.15 K): 792.8 ± 1.9 kg/m3; surface tension liquid-gas ([2]; 313.15 K): 22.2 ± 0.4 mN/m; mass density ([2]; 313.15 K): 787.02 ± 1.9 kg/m3
